Laboratory results from paper PMC7155171, “Probing the Open Global Health Chemical Diversity Library for Multistage-Active Starting Points for Next-Generation Antimalarials” (ACS Infectious Diseases, 2020).
Read-outs that look alike come from different tables or passages of the source.

How the values were obtained:
P. falciparum Dd2 = test: SYBR green I asexual blood stage proliferation assay (96 h); type: cell-based, Plasmodium falciparum; settings: for IC50 / Emax: Plasmodium falciparum; for CDD P. falciparum Sybr Green I ABS Dd2 Dose Response: Maximum measured (%): Dd2, 96 h
[1] = tested on: P. falciparum Dd2 (PfLuc) line expressing firefly luciferase, asexual blood stage; test: microbe, parasite or virus in culture; type: cell-based, Plasmodium falciparum; settings: Plasmodium falciparum
[2] = DD2, Sybr Green I, 11-pt dose response, 96hr, read-out: CDD P. falciparum Sybr Green I ABS 11-pt Reconfirmation Dose Response (96hr): IC50
[3] = DD2, Sybr Green I, 11-pt dose response, 96hr, read-out: CDD P. falciparum Sybr Green I ABS 11-pt Reconfirmation Dose Response (96hr): Maximum inhibition (%)
[4] = DD2, read-out: CDD P. falciparum Luciferase ABS 11-pt Reconfirmation Dose Response (48hr): IC50 (μM), 11-pt dose response, 48hr
[5] = DD2, 8-pt dose response, 96hr, read-out: CDD P. falciparum Luciferase ABS 8-pt Reconfirmation Dose Response (96hr): IC50
[6] = DD2, 8-pt dose response, 96hr, read-out: CDD P. falciparum Luciferase ABS 8-pt Reconfirmation Dose Response (96hr): Maximum inhibition (%)
[7] = DD2, 11-pt dose response, 48hr, read-out: CDD P. falciparum Luciferase ABS 11-pt Reconfirmation Dose Response (48hr): Maximum inhibition (%)
[8] = DD2, 11-pt dose response, 96hr, read-out: CDD P. falciparum Luciferase ABS 11-pt Reconfirmation Dose Response (96hr): IC50
[9] = DD2, 11-pt dose response, 96hr, read-out: CDD P. falciparum Luciferase ABS 11-pt Reconfirmation Dose Response (96hr): Maximum inhibition (%)
[10] = DD2, 96 h, read-out: CDD P. falciparum Sybr Green I ABS Dd2 Dose Response: IC50
[11] = DD2, read-out: CDD P. falciparum Luc 11pt dose response (96hr, n=2): IC50 (μM), 96hr, 11-point, n=2
[12] = DD2, read-out: CDD P. falciparum Luciferase 11pt dose response (48hr, n=2): IC50 (μM), 48hr, 11-point, n=2
[13] = DD2, 48hr, 11-point, read-out: CDD P. falciparum Luciferase ABS 11-pt Reconfirmation Dose Response (48hr): Maximum inhibition (%)
[14] = DD2, 96hr, 11-point, read-out: CDD P. falciparum Luciferase ABS 11-pt Reconfirmation Dose Response (96hr): Maximum inhibition (%)
[15] = 96 h incubation, Dd2 luciferase, read-out: 96 hour Pfluc IC50
[16] = DD2, 11-pt dose response, 96hr, read-out: P. falciparum Sybr Green I ABS 11-pt Reconfirmation Dose Response (96hr): IC50
[17] = DD2, 11-pt dose response, 96hr, read-out: P. falciparum Sybr Green I ABS 11-pt Reconfirmation Dose Response (96hr): Maximum inhibition (%)
[18] = DD2, read-out: P. falciparum Luciferase ABS 11-pt Reconfirmation Dose Response (48hr): IC50, 11-pt dose response, 48hr
[19] = DD2, 8-pt dose response, 96hr, read-out: P. falciparum Luciferase ABS 8-pt Reconfirmation Dose Response (96hr): IC50
[20] = DD2, 8-pt dose response, 96hr, read-out: P. falciparum Luciferase ABS 8-pt Reconfirmation Dose Response (96hr): Maximum inhibition (%)
[21] = DD2, 11-pt dose response, 96hr, read-out: P. falciparum Luciferase ABS 11-pt Reconfirmation Dose Response (96hr): IC50
[22] = DD2, 11-pt dose response, 96hr, read-out: P. falciparum Luciferase ABS 11-pt Reconfirmation Dose Response (96hr): Maximum inhibition (%)
[23] = DD2, 11-pt dose response, 48hr, read-out: P. falciparum Luciferase ABS 11-pt Reconfirmation Dose Response (48hr): Maximum inhibition (%)

Compound | IC50 (P. falciparum Dd2; [2]) | Emax (P. falciparum Dd2; [3]) | IC50 [1, 4] | IC50 [1, 5] | Emax [1, 6] | Emax [1, 7] | IC50 [1, 8] | Emax [1, 9] | other results
CNc1nc(C)cc(NC2CCCN(C3Cc4ccccc4C3)C2)n1 (stereo not drawn) [DDD01254555] | 1.02 µM | 87% | 2.19 µM | 1.11 µM | 92.9% | 82.6% | 1.07 µM | 100% | 
Cc1ccccc1N1CCCN(CC2(O)CCCNC2)CC1 (stereo not drawn) [DDD01254676] | 1.59 µM | 91.2% | 3.64 µM | 0.54 µM | 90.4% | 89.1% | 1.37 µM | 97.2% | 
CN(Cc1ncc[nH]1)c1nc(-c2ccccn2)nc2c1CCNCC2 [DDD01254777, CN(Cc1ncc[nH]1)c1nc(nc2CCNCCc12)-c1ccccn1] |  |  |  |  |  |  |  |  | CDD P. falciparum Sybr Green I ABS Dd2 Dose Response: Maximum measured (%) (P. falciparum Dd2): 65.7%; IC50 (P. falciparum Dd2; [10]): > 4.16 µM; IC50 [1, 11]: 0.214 µM; IC50 [1, 12]: 10.2 µM; Emax [1, 13]: 65.1%; Emax [1, 14]: 94.2%; IC50 [1, 15]: 0.21 µM
CN1CCC(C2CCN(Cc3cccc(-n4cccn4)c3)CC2)C1 (stereo not drawn) [DDD01255349] | 2.05 µM | 94.8% | 0.818 µM | 0.65 µM | 93.2% | 97.1% | 0.46 µM | 100% | 
Clc1cccc2c3c([nH]c12)CCN(Cc1cc2n(n1)CCCNC2)C3 [DDD01255494] |  |  |  |  |  |  |  |  | IC50 (P. falciparum Dd2; [16]): 3.52 µM; Emax (P. falciparum Dd2; [17]): 91%; IC50 [1, 18]: 3.79 µM; IC50 [1, 19]: 1.21 µM; Emax [1, 20]: 91.2%; IC50 [1, 21]: 1.07 µM; Emax [1, 22]: 99.6%
COc1ccc(-c2ccccc2CCN)c(OC)c1OC [DDD01256178] | 3.03 µM | 89.5% | 3.3 µM | 1 µM | 87.9% | 83.2% | 2.11 µM | 98.8% | 
CC(C)(C)c1nccc(C2(c3ccccc3Cl)CCNCC2)n1 [DDD01256872] |  |  |  |  |  |  |  |  | IC50 (P. falciparum Dd2; [16]): 1.71 µM; Emax (P. falciparum Dd2; [17]): 74.4%; IC50 [1, 18]: 5.56 µM; IC50 [1, 19]: 2.03 µM; Emax [1, 20]: 78.8%; Emax [1, 23]: 91.9%; IC50 [1, 21]: 1.22 µM; Emax [1, 22]: 98.3%
CO[C@H]1CN(C(C)C)C[C@@H]1NC(=O)c1cc(-c2ccccc2O)n[nH]1 [DDD01257008] |  |  |  |  |  |  |  |  | IC50 (P. falciparum Dd2; [16]): 4.52 µM; Emax (P. falciparum Dd2; [17]): 94.2%; IC50 [1, 18]: 7.18 µM; IC50 [1, 19]: 1.29 µM; Emax [1, 20]: 94.7%; Emax [1, 23]: 87.1%; IC50 [1, 21]: 3.21 µM; Emax [1, 22]: 97.2%
CC(C)n1ccnc1C1CCCN(c2ccnc3ccccc23)C1 (stereo not drawn) [DDD01257414] | 1.94 µM | 98.5% | 2.09 µM | 0.8 µM | 94.6% | 95.8% | 1.64 µM | 99.7% | 
CC(C)N1CCC(NCc2cccnc2N(C)Cc2ccccc2)CC1 [DDD01257477] | 0.163 µM |  | > 12.5 µM | 0.45 µM | 89.2% | 61.1% | 3.84 µM | 87.8% | 
Cc1nc[nH]c1CN(C)CC1CCCN(CCc2ccc(Cl)cc2)C1 (stereo not drawn) [DDD01257555] | 0.963 µM | 98.8% | 1.62 µM | 0.65 µM | 93.5% | 99.6% | 0.463 µM | 99.9% | 
Clc1ccccc1C1(c2ccnc(CC3CC3)n2)CCNCC1 [DDD01257764] | 0.422 µM | 70.6% | 3.74 µM | 0.27 µM | 92.2% | 90.6% | 0.581 µM | 98% | IC50 [1, 15]: 0.58 µM
OCC1CCCCN1c1ccc(-c2nc(-c3ccccc3F)no2)cn1 (stereo not drawn) [DDD01257937] | > 12.5 µM | 41.3% | 1.36 µM | 0.46 µM | 90.5% | 83.7% | 1.23 µM | 89.1% | 
Clc1ccccc1C1(c2ccnc(-c3ccncc3)n2)CCNCC1 [DDD01257938] | 2.22 µM | 98.9% | 4.26 µM | 0.31 µM | 93.5% | 98.2% | 0.482 µM | 99.5% | 
CN(Cc1cccc(O)c1)CC1CCCN(CCc2ccc(Cl)cc2)C1 (stereo not drawn) [DDD01257948] | 0.802 µM | 98% | 2.24 µM | 0.67 µM | 94.6% | 97.4% | 1.38 µM | 99.5% | 
CCn1ccnc1CN1CCCC(CO)(Cc2cccc(Cl)c2)C1 (stereo not drawn) [DDD01258327] |  |  |  |  |  |  |  |  | IC50 (P. falciparum Dd2; [16]): 3.02 µM; Emax (P. falciparum Dd2; [17]): 58.2%; IC50 [1, 18]: > 12.5 µM; IC50 [1, 19]: 2.14 µM; Emax [1, 20]: 81.2%; Emax [1, 23]: 38.3%; IC50 [1, 21]: 2.68 µM; Emax [1, 22]: 82.9%
COc1cc(CNCC(O)c2cccc(F)c2)cc2c1OCO2 (stereo not drawn) [DDD01296688] | 4.84 µM | 88.3% | 3.64 µM | 0.82 µM |  | 88.9% | 1.77 µM | 98.5% | 
COc1cc(CNCC(O)c2ccc(F)cc2F)cc2c1OCO2 (stereo not drawn) [DDD01296730] |  |  |  |  |  |  |  |  | IC50 (P. falciparum Dd2; [16]): 4.87 µM; IC50 [1, 18]: 4.89 µM; IC50 [1, 19]: 1.16 µM; Emax [1, 20]: 88.4%; Emax [1, 23]: 87.3%; IC50 [1, 21]: 2.48 µM; Emax [1, 22]: 98.1%
O=C(Nc1ccc(OC2CCCC2)cc1)C1CCCN1c1nccs1 (stereo not drawn) [DDD01297375, O=C(Nc1ccc(OC2CCCC2)cc1)C1CCCN1c1nccs1] |  |  |  |  |  |  |  |  | CDD P. falciparum Sybr Green I ABS Dd2 Dose Response: Maximum measured (%) (P. falciparum Dd2): 45.3%; IC50 (P. falciparum Dd2; [10]): > 12.5 µM; IC50 [1, 11]: 0.0372 µM; IC50 [1, 12]: > 10 µM; Emax [1, 13]: 50%; Emax [1, 14]: 94.7%
OCCN1CCC(CNCc2ccccc2OC(F)(F)F)CC1 [DDD01297525] |  |  |  |  |  |  |  |  | IC50 (P. falciparum Dd2; [16]): 7.44 µM; Emax (P. falciparum Dd2; [17]): 77.9%; IC50 [1, 18]: > 12.5 µM; IC50 [1, 19]: 1.51 µM; Emax [1, 20]: 88.7%; Emax [1, 23]: 54.6%; IC50 [1, 21]: 5.42 µM; Emax [1, 22]: 88.7%
CC(O)CN1CCC(CNCc2cccc(OC(F)(F)F)c2)CC1 (stereo not drawn) [DDD01297560] | 2.94 µM | 91.2% | > 12.5 µM | 1.04 µM | 91% | 58.6% | 5.4 µM | 87.8% | 
Cc1ccnc(NC(=O)c2[nH]nc(C(C)C)c2Br)c1 [DDD01298775] | 8.74 µM | 51.2% | 3.6 µM | 0.39 µM | 91.3% | 93% | 1.39 µM | 97% | 
CC(C)c1n[nH]c(C(=O)Nc2ccccn2)c1Br [DDD01298780] | 4.27 µM | 51.4% | 4.01 µM | 0.53 µM | 92.3% | 87.6% | 3.99 µM | 95.1% | 
Cc1cc(C)n(C2CN(CC(O)c3cc(F)ccc3F)C2)n1 (stereo not drawn) [DDD01298957] | 0.733 µM | 98.5% | 1.46 µM | 0.21 µM | 94.9% | 98.6% | 0.854 µM | 100% | 
CC(O)CN1CCC(CNCc2cccc(C(F)(F)F)c2)CC1 (stereo not drawn) [DDD01300262] |  |  |  |  |  |  |  |  | IC50 (P. falciparum Dd2; [16]): 2.46 µM; Emax (P. falciparum Dd2; [17]): 91.1%; IC50 [1, 18]: 9.69 µM; IC50 [1, 19]: 1.59 µM; Emax [1, 20]: 89.5%; Emax [1, 23]: 69.7%; IC50 [1, 21]: 4.76 µM; Emax [1, 22]: 92.7%
CC(O)CN1CCC(CNCc2cccc(Cl)c2)CC1 (stereo not drawn) [DDD01300263] | 3.65 µM | 89.5% | 5.96 µM | 0.76 µM | 89.7% | 89% | 2.57 µM | 98% | 
CC(O)CN1CCC(CNCc2cccc(Br)c2)CC1 (stereo not drawn) [DDD01304344] | 2.06 µM | 93.8% | 3.63 µM | 0.58 µM | 91.2% | 92.1% | 1.64 µM | 98.2% | 
